Reference: ChEMBL document CHEMBL1152369, “Unsymmetrical non-adamantyl N,N'-diaryl urea and amide inhibitors of soluble expoxide hydrolase” (Bioorg Med Chem Lett, 2009)

How the values were obtained:
[1] = AUC (0 to 24 hrs) in Sprague-Dawley rat at 5 mg/kg, po by LC/MS/MS analysis; format: ADME, organism-based; set-up: time < 24 hr, dose 5 mg/kg, route oral; conditions: plasma
[2] = biological target: T1, Bifunctional epoxide hydrolase 2 (Homo sapiens, UniProt P34913); assay: Inhibition of human soluble epoxide hydrolase by fluorescent endpoint assay
T1 sequence (P34913 whole entry): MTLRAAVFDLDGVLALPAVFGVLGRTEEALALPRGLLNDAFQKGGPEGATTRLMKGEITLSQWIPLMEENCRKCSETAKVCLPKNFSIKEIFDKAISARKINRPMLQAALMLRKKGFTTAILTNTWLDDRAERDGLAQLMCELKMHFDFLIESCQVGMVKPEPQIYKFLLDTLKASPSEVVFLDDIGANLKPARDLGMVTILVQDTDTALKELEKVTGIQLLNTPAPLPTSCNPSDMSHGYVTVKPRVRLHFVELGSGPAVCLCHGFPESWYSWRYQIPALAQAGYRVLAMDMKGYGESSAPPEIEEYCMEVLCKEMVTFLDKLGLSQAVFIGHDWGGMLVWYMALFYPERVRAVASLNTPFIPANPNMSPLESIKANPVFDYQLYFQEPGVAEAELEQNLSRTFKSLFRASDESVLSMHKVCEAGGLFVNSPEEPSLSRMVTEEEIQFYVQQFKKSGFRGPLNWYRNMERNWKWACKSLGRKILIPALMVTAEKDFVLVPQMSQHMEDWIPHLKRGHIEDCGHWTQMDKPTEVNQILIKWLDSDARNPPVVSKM

[3] = Cmax in Sprague-Dawley rat at 5 mg/kg, po by LC/MS/MS analysis; format: ADME, organism-based; set-up: dose 5 mg/kg, route oral; conditions: in vivo

| SMILES | AUC(0-t) at 24 h [1] [ng·h/mL] | IC50 [2] [nM] | Cmax [3] [ng/mL] |
| --- | --- | --- | --- |
| O=C(Nc1ccc(F)c(OCCCN2CCOCC2)c1)NC1CCCCC1 | – | 6.5 | – |
| CN(C)c1cccc(NC(=O)Nc2cccc(OCCCN3CCOCC3)c2)c1 | – | 240 | – |
| O=C(Nc1ccc(Cl)cc1)Nc1ccc(F)c(OCCCN2CCOCC2)c1 | – | 4.8 | – |
| O=C(Cc1ccc(F)c(F)c1)Nc1cccc(OCCCN2CCOCC2)c1 | – | 321 | – |
| O=C(Nc1ccc(Cl)cc1)Nc1ccc(OCCCN2CCOCC2)cc1 | – | 1.5 | – |
| O=C(Nc1ccc(F)cc1)Nc1cccc(OCCCN2CCOCC2)c1 | 491 | 14 | 123 |
| O=C(Nc1ccc(OCCCN2CCOCC2)cc1)Nc1ccc(OC(F)(F)F)cc1 | – | 0.8 | – |
| O=C(Nc1ccc(F)cc1)Nc1ccc(F)c(OCCCN2CCOCC2)c1 | – | 40 | – |
| O=C(CC12CC3CC(CC(C3)C1)C2)Nc1ccc(F)c(OCCCN2CCOCC2)c1 | – | 6.6 | – |
| CC(C)(C)CC(=O)Nc1cccc(OCCCN2CCOCC2)c1 | – | 1550 | – |
| O=C(Cc1ccc(C(F)(F)F)cc1)Nc1ccc(OCCCN2CCOCC2)cc1 | – | 54 | – |
| O=C(Nc1cccc(OCCCN2CCOCC2)c1)Nc1cccc(C(F)(F)F)c1 | – | 13.8 | – |
| O=C(Cc1ccc(Cl)cc1)Nc1ccc(OCCCN2CCOCC2)cc1 | – | 140 | – |
| O=C(Nc1cccc(OCCCN2CCOCC2)c1)Nc1c(F)cc(F)cc1F | – | 1880 | – |
| O=C(Nc1ccc(C(F)(F)F)cc1)Nc1ccc(F)c(OCCCN2CCOCC2)c1 | – | 1.3 | – |
| O=C(Nc1cccnc1)Nc1cccc(OCCCN2CCOCC2)c1 | – | 5000 | – |
| O=C(Nc1ccc(OC(F)(F)F)cc1)Nc1ccc(F)c(OCCCN2CCOCC2)c1 | – | 0.8 | – |
| O=C(Nc1ccccc1)Nc1ccc(OCCCN2CCOCC2)cc1 | – | 39 | – |
| O=C(Cc1ccc(OC(F)(F)F)cc1)Nc1cccc(OCCCN2CCOCC2)c1 | – | 43 | – |
| O=C(Cc1ccc(OC(F)(F)F)cc1)Nc1ccc(F)c(OCCCN2CCOCC2)c1 | – | 145 | – |
| O=C(Nc1cccc(OCCCN2CCOCC2)c1)Nc1c(Cl)cccc1Cl | – | 10000 | – |
| O=C(Cc1ccc(F)cc1)Nc1cccc(OCCCN2CCOCC2)c1 | 57 | 550 | 48 |
| O=C(Nc1ccc(Cl)cc1)Nc1cccc(OCCCN2CCOCC2)c1 | 9 | 2 | 6 |
| O=C(Nc1cccc(OCCCN2CCOCC2)c1)Nc1ccc(F)cc1F | – | 121 | – |
| O=C(Nc1ccc(OCCCN2CCOCC2)cc1)NC1CCCCC1 | 863 | 5.4 | 669 |

Now from value to compound:

| AUC(0-t) at 24 h [1] [ng·h/mL] | IC50 [2] [nM] | Cmax [3] [ng/mL] | SMILES |
| --- | --- | --- | --- |
| 8 | 1 | 5 | O=C(Nc1ccc(C(F)(F)F)cc1)Nc1cccc(OCCCN2CCOCC2)c1 |
| – | 8 | – | O=C(Nc1ccc(OC(F)(F)F)cc1)Nc1cccc(OCCCN2CCOCC2)c1 |
| 131 | – | 102 | O=C(Nc1cccc(OCCCN2CCOCC2)c1)NC1CCCCC1 |
| 3570 | 38 | 1570 | O=C(Nc1ccccc1)Nc1cccc(OCCCN2CCOCC2)c1 |
| – | 1.3 | – | O=C(CC12CC3CC(CC(C3)C1)C2)Nc1ccc(OCCCN2CCOCC2)cc1 |
| – | 365 | – | O=C(Cc1ccc2c(c1)OCO2)Nc1cccc(OCCCN2CCOCC2)c1 |
| – | 1040 | – | CC(C)(C)NC(=O)Nc1cccc(OCCCN2CCOCC2)c1 |
| – | 14000 | – | O=C(Cc1cccnc1)Nc1cccc(OCCCN2CCOCC2)c1 |
| – | 870 | – | O=C(Cc1ccccc1)Nc1ccc(OCCCN2CCOCC2)cc1 |
| – | 42 | – | O=C(Cc1ccc(OC(F)(F)F)cc1)Nc1ccc(OCCCN2CCOCC2)cc1 |
| – | 116 | – | O=C(Cc1ccc(Cl)cc1)Nc1cccc(OCCCN2CCOCC2)c1 |
| – | 81 | – | O=C(Nc1ccccc1)Nc1ccc(F)c(OCCCN2CCOCC2)c1 |
| 753 | 33 | 218 | O=C(Nc1cccc(OCCCN2CCOCC2)c1)Nc1ccc2c(c1)OCO2 |
| – | 0.8 | – | O=C(Nc1ccc(F)c(OCCCN2CCOCC2)c1)NC12CC3CC(CC(C3)C1)C2 |
| 1050 | 0.8 | 263 | O=C(Nc1ccc(OCCCN2CCOCC2)cc1)Nc1ccc(C(F)(F)F)cc1 |
| 3 | 11 | 3 | O=C(Nc1cccc(OCCCN2CCOCC2)c1)Nc1ccc(F)c(F)c1 |
| – | 5.2 | – | O=C(CC12CC3CC(CC(C3)C1)C2)NC1CCCC(OCCCN2CCOCC2)C1 (stereo not drawn) |
| – | 2.5 | – | O=C(NC1CCCC(OCCCN2CCOCC2)C1)NC12CC3CC(CC(C3)C1)C2 (stereo not drawn) |
| – | 156 | – | O=C(Cc1ccc(C(F)(F)F)cc1)Nc1ccc(F)c(OCCCN2CCOCC2)c1 |
